The subject of series [1] is Staphylococcus aureus (ATCC 6538P). Briefly: Antiseptic action: MIC, agar plate dilution method. Format: cell-based. The following applies: ATCC6538P; Staphylococcus aureus (ATCC 6538P); read-out: Minimum inhibitory concentration.
For series [2], the system named is Helicobacter pylori (NCTC 11638). Briefly: Antiseptic action: MIC, agar plate dilution method. Format: cell-based. The following applies: for MIC: NCTC11638, Helicobacter pylori (NCTC 11638), Brucella broth agar with horse blood, read-out: Minimum inhibitory concentration; for Inhibition of the growth of Helicobacter pylori (in words): comment on Table 8.
Series [3] relates to vesicular stomatitis virus (VSV). The experiment in a line: microbe, parasite or virus in culture. Format: cell-based. The settings on record: L929, 24 h, read-out: 50% Growth inhibitory concentration.
The test system of series [4] is Bacillus cereus (IFO 3466). The experiment in a line: Antiseptic action: MIC, agar plate dilution method. Format: cell-based. The following applies: IFO3466; Bacillus cereus (IFO 3466); read-out: Minimum inhibitory concentration.
A short description of series [5]: Radical-entrapping action, nitro blue tetrazolium (NBT) method. In kind it is biochemical. The following applies: for Radical-entrapping action: one unit = 50% inhibition of formazan formation, xanthin oxidase/xanthin/NBT; for Radical-entrapping action (in words): comment on Table 11. On the procedure:
Then the formed formazan was quantified on spectro-chemical analysis. Either of the present physiologically active extracts was dissolved in a refined water to give an appropriate concentration, and the solutions were used for test samples. As a control it was provided by replacing the test samples with a refined water. The 50% inhibitory activity for the formation of formazan in the control was defined as a one unit activity of radical-entrapping action. Based of the definition, the radical-entrapping activity of one gram of each test sample was determined.

A further series concerns HGC-27 cells. The experiment in a line: Antitumor action: growth inhibition, methylene blue staining. In kind it is cell-based. The settings on record: Homo sapiens; HGC-27 cells, 48 hours; read-out: 50% growth inhibitory concentration. On the procedure:
(§1) Solutions in each well were serially diluted with a fresh preparation of the same RPMI1640 medium (pH 7.2) as used in the above. […] Each cell suspension was distributed to a microplate in a volume of 50 μl/well and incubated at 37° C. for 48 hours in a 5 v/v % CO2 incubator. To each microplate, a 25 v/v % aqueous glutaraldehyde solution was added in a volume of 20 μl/well, and the microplate was allowed to stand for 15 min to fix the cells. Then, the cells adhered to the wells were washed with water, admixed with a 0.05 w/v % aqueous methylene blue solution in a volume of 100 μl/well, and further allowed to stand for 15 min to stain the cells. Thereafter, an excessive amount of the staining solution was removed from the wells by washing with water, and the cells were dried, admixed with 300 μl/well of 0.33 N hydrochloric acid, stirred sufficiently, and measured for absorption at a wavelength of 620 nm. In parallel, as a control, a system free of a test sample was provided and treated similarly as in the test samples. […]

For another series, the system named is HL-60 cells. Described as above. The following applies: Homo sapiens; HL-60 cells, 48 hours; read-out: 50% growth inhibitory concentration. Format: cell-based. The method, then: as §1
Another series has as its system HLC-1 cells. The description is as above. Format: cell-based. The settings on record: Homo sapiens; HLC-1 cells, 48 hours; read-out: 50% growth inhibitory concentration. On the procedure: as §1
The test system of series [6] is Pseudomonas aeruginosa (IFO 3453). Briefly: Antiseptic action: MIC, agar plate dilution method. In kind it is cell-based. The following applies: IFO3453; Pseudomonas aeruginosa (IFO 3453); read-out: Minimum inhibitory concentration.
Another series relates to HBL-38 cells. The following applies: for Relative value of 3H-thymidine uptake: HBL-38 cells, relative to positive control = 100. The method, then:
(§2) […] of either of the above dilutes of Compound 7, 150 μl of the above cell suspension of HBL-38 cells treated with disperse, and 50 μl of a serum-free medium containing 5 μg/ml of lipopolysaccharide (LPS) were added to each well in a microplate, and the cells were incubated at 37° C. for 24 hours in a 5 v/v % CO2 incubator and used for test group. In parallel, as a negative control, a system with a serum-free medium in place of the serum-free medium containing LPS in the test group, and, as a positive group, a system with a serum medium in place of the dilute of Compound 7 in the test group were provided and treated similarly as in test group. After 24-hour incubation, 50 μl aliquots of supernatants from each well were collected. The collected supernatants were respectively subjected to conventional enzyme immunoassay using Gg23-901-530, obtained from National Institute of Health, Bethesda, Md., USA, as a standard for human interferon-γ, and quantified for interferon-γ production in each system. The cells in each well, from which the supernatants were removed, were mixed with 50 μl aliquots of a ^3H-thymidine solution with a radiation intensity of 5 μCi/ml in serum medium, and incubated at 37° C. for eight hours in a 5 v/v % CO2 incubator. Thereafter, the cells in each well in the microplate were collected with a glass filter, measured for radiation intensity by “DIRECT β-COUNTER MATRIX 96”, a β-ray detector commercialized by Packard Instrument Co., Conn., USA, and examined for ^3H-thymidine uptake by the cells in each well. […] In Table 13 the level of ^3H-thymidine uptake is expressed with a relative value (%) to the positive control.

The subject of the next series is interferon-γ production. The settings on record: HBL-38 cells + LPS; for Interferon-γ production level: 24 hours, positive control 5.468, negative control 1.367. On the procedure: HBL-38 cells as an immunocompetent cell were cultured until proliferated to a prescribed cell density. After culturing, the proliferated HBL-38 cells were washed three times with RPMI1640 medium (pH 7.2) (hereinafter designated as “serum-free medium” in Experiment 15) by centrifugation, and adjusted to give a cell density of 1×10^8 cells/ml using the serum-free medium. To one milliliter of the cell suspension were added 4.5 ml of the serum-free medium and 0.5 ml of a disperse solution prepared by dissolving dispase, commercialized by Godo Shusei, Co., Ltd., Tokyo, Japan, in physiological saline to give a concentration of 10,000 units/ml, and the mixture was incubated at 37° C. for 90 min under shaking conditions. Thereafter, HBL-38 cells were washed three times with the serum medium by centrifugation and mixed with the serum medium into a cell suspension with a cell density of 1×10^6 cells/ml.
as §2

Experimental findings from patent publication US6524625B2, “Physiologically active extract obtained from indigo plant polygonum tinctorium” (Kabushiki Kaisha Hayashibara Seibutsu Kagaku Kenkyuto, priority 1998, dated 2003) are described below.

In brackets after ≈: the same amount, converted by molar mass. Like-named read-outs stand apart in the source and are kept apart here.

On to `O=c1c(O)c(-c2ccc(O)cc2)oc2cc3c(c(O)c12)OCO3` [Compound 2, 3,5, 4′-trihydroxy-6,7-methylenedioxy-flavone], for which the MIC in series [1] was 313 µg/mL (≈ 996 µM); in [2], 156 µg/mL (≈ 496 µM); in series [4], 313 µg/mL (≈ 996 µM); in series [6], 313 µg/mL (≈ 996 µM). The IC50 in series [3] came to 14 µg/mL (≈ 44.6 µM); with HGC-27 cells, 37.1 µg/mL (≈ 118 µM); in the series on HL-60 cells it was 244 µg/mL (≈ 775 µM); in the series on HLC-1 cells it was 40.4 µg/mL (≈ 129 µM). Moreover, the Radical-entrapping action in series [5] is 1,830 unit/g.
For `O=c1c(O)c(-c2ccc(O)cc2)oc2cc(O)cc(O)c12` [Compound 3, kaempferol], in series [2], the MIC was found to be 39 µg/mL (≈ 136 µM) and the “Inhibition of the growth of Helicobacter pylori (in words)” value is on record as “strongly inhibited the growth”. For the same compound, the Radical-entrapping action in series [5] is recorded as 14,000 unit/g.
The corresponding values for `COc1c(O)cc2oc(-c3ccc(O)cc3)c(O)c(=O)c2c1O` [Compound 4, 3,5,7,4′-tetrahydroxy-6-methoxy-flavone] are 39 µg/mL (≈ 123 µM), “strongly inhibited the growth” and 4,010 unit/g.
Regarding `O=C(O)c1cc(O)c(O)c(O)c1` [Compound 5, gallic acid], in series [5], the “Radical-entrapping action (in words)” value was “remarkable” and the Radical-entrapping action is 692,000 unit/g.
Regarding `O=C(O)/C=C/c1ccc(O)c(O)c1` [Compound 6, caffeic acid], in series [5], the “Radical-entrapping action (in words)” value is reported as “remarkable” and the Radical-entrapping action is given as 418,000 unit/g.
For `O=C1Nc2ccccc2/C1=C1/Nc2ccccc2C1=O` [Compound 7, 3-(1,3-dihydro-3-oxo-2H-indol-2-ylidene)-1,3-dihydro-2H-indol-2-one], the “Relative value of 3H-thymidine uptake” value in the series on HBL-38 cells (0.07 ng/ml) turned out to be 98.0%; in the series on HBL-38 cells (0.15 ng/ml) it was 98.3%; with HBL-38 cells (0.31 ng/ml), 99.7%; with HBL-38 cells (0.62 ng/ml), 96.4%; in the series on HBL-38 cells (1.25 ng/ml), 99.6%; in the series on HBL-38 cells (2.5 ng/ml) it was 105.7%. For the same compound, the entries for the “Relative value of 3H-thymidine uptake” value in the series on HBL-38 cells (5.0 ng/ml) and with HBL-38 cells (10.0 ng/ml) were 101.1% and 99.4%, respectively. In the series on HBL-38 cells (0.07-10.0 ng/ml), the “Level of 3H-thymidine uptake by HBL-38 cells, control vs test groups (in words)” value is reported as “no significant difference”. Further, the Interferon-γ production level in the series with interferon-γ production (0.07 ng/ml) is listed as 2.753 IU/ml; in the series on interferon-γ production (0.15 ng/ml), 2.195 IU/ml; with interferon-γ production (0.31 ng/ml), 1.979 IU/ml; in the series on interferon-γ production (0.62 ng/ml), 1.958 IU/ml; with interferon-γ production (1.25 ng/ml), 1.288 IU/ml; with interferon-γ production (2.5 ng/ml), 1.342 IU/ml. Further, the Interferon-γ production level worked out at 0.932 IU/ml in the series with interferon-γ production (5.0 ng/ml) and 0.965 IU/ml with interferon-γ production (10.0 ng/ml). Further, the “Concentration at which interferon-γ production was inhibited to the same or lower level as the negative control free of LPS” value with interferon-γ production was “at least 1.25 ng/ml”. The “Inhibition of interferon-γ production (in words)” value in the series on interferon-γ production was “inhibited the interferon-γ production dose-dependently”.
